This data set in a line: Human HepG2 cell viability assay in 384 well format. It is filed as toxicity, cell-based. The arrangement: dose 125 nL, time 70.5 hour; cytotoxicity at 70.5 h: concentration not given beside the values. The note with it: HepG2 cells, read-out: Inhibition.
As to `O[C@@]1(Cn2cnc(Cl)c2Cl)CCCN2CCCC[C@@H]21`, the cytotoxicity at 70.5 h is -12.5%.

`COCCOCC(=O)N1CCCC(c2ncc[nH]2)C1` (centres undefined): the cytotoxicity at 70.5 h is -16.6%.

As for `CC(C)Oc1cccc(F)c1C(C(=O)O)N1CCCC1` (centres undefined), the cytotoxicity at 70.5 h is -11.9%.

On to `Cc1nn(C)c(C)c1NC(=O)c1cccc(CN2CCS(=O)(=O)CC2)c1`, for which the cytotoxicity at 70.5 h was -6.09%.

As to `Cc1ccc(C(=O)N2C[C@@H]3CC[C@H](C2)N(CC2CCC2)C3)s1`, the cytotoxicity at 70.5 h worked out at 7.49%.

In the case of `CCNC(=O)[C@@H]1C[C@@H](N)CN1C(=O)c1cc2ccccc2[nH]1`, the cytotoxicity at 70.5 h was -1.64%.

In the case of `OCC1(Cc2ccc(Cl)cc2)CCN(Cc2cccnc2)CC1`, the cytotoxicity at 70.5 h was 10.8%.

In the case of `COCC(=O)N1CCCC1c1ccc(C(=O)NCc2ccccc2Cl)s1` (centres undefined), the cytotoxicity at 70.5 h was -11.5%.

Turning to `CC(C)c1cc(C(=O)N[C@H]2CN(C3CCOCC3)C[C@@H]2C2CC2)no1`, the cytotoxicity at 70.5 h is -6.62%.

Turning to `COc1ccc(C(=O)N2CCOC(Cc3cccc(C(F)(F)F)c3)C2)o1` (centres undefined), the cytotoxicity at 70.5 h was -7.8%.

Take `c1ccc(-c2ncn(CCCN3CCOCC3)c2-c2ccncc2)cc1`: the cytotoxicity at 70.5 h is -6.69%.

On to `CCN(CC)CCn1ccnc1-c1cccc(O)c1`, for which the cytotoxicity at 70.5 h was 1.22%.

Consider `Fc1cccc(-c2cccc(N3CCC(NC4CCCOC4)CC3)c2)c1` (centres undefined), for which the cytotoxicity at 70.5 h amounted to 33.8%.

Consider `Cc1cccc(N2CCN(CCC(=O)NCc3cnc(C)cn3)CC2)c1`, for which the cytotoxicity at 70.5 h was determined as 23.9%.

As to `COc1ccc(CN2CCCC2)cc1Oc1ccc2c(c1)CC(CN)O2` (centres undefined), the cytotoxicity at 70.5 h is -11.3%.

In the case of `O=C(O)c1cccc(CC2CCN(c3ncc(F)cn3)CC2)c1`, the cytotoxicity at 70.5 h is -9.85%.

Turning to `CSc1nccc(NCC2CNCCO2)n1` (centres undefined), the cytotoxicity at 70.5 h is -5.51%.

Turning to `Nc1cccc(-c2cccc3ccnn23)n1`, the cytotoxicity at 70.5 h was -6.36%.

As to `CNc1ccnc(N2C[C@@H]3CC[C@H](C2)N(CCOC)C3=O)n1`, the cytotoxicity at 70.5 h was -8%.

Consider `CCCc1nc(C)cc(N2CCNC(C(=O)NC3CC3)C2)n1` (centres undefined), for which the cytotoxicity at 70.5 h was 2.45%.

For `Cc1cccn2cc(C(=O)N3CCCN(CC4CC4)C(C(C)C)C3)nc12` (centres undefined), the cytotoxicity at 70.5 h was -8.2%.

For `N#Cc1cccnc1N1CCCC(CO)(Cc2cccc(Cl)c2)C1` (centres undefined), the cytotoxicity at 70.5 h was 2.5%.

Consider `CN(C(=O)Cc1ccn(C)c1)C1CCCN(C2Cc3ccccc3C2)C1` (centres undefined), for which the cytotoxicity at 70.5 h was found to be 1.52%.

Regarding `CC(CO)NCc1csc2c1CCCC2` (centres undefined), the cytotoxicity at 70.5 h amounted to 0.572%.

Turning to `COc1ccccc1-n1nc(-c2ccco2)n(CC(N)=O)c1=O`, the cytotoxicity at 70.5 h was -7.68%.

With `COCCN(Cc1sccc1C)C(=O)c1c(O)cccc1F`, the cytotoxicity at 70.5 h is -5.43%.

Consider `Cc1ccc(CN2CCN(c3ncccc3Cl)CC2CCO)cc1` (centres undefined), for which the cytotoxicity at 70.5 h is -0.712%.

On to `CC(C)c1cnc(N2C[C@H](CO)C[C@H](CN3CCOCC3)C2)nc1`, for which the cytotoxicity at 70.5 h is -4.2%.

As for `CCCN1CCCn2nc(CNS(=O)(=O)c3ccc(F)cc3)cc2C1`, the cytotoxicity at 70.5 h was 4.7%.

On to `Cc1cccc(C(C(=O)NC(C)(C)CN2CCOCC2)N(C)C)c1` (centres undefined), for which the cytotoxicity at 70.5 h was 25.2%.

Regarding `Cc1ccc2nccc(C(=O)N3CCOC(CCN(C)C)C3)c2c1` (centres undefined), the cytotoxicity at 70.5 h came out at 15.6%.

Consider `O=S(=O)(c1ccc(-c2cnco2)cc1)N1CCCC(O)(CO)CC1` (centres undefined), for which the cytotoxicity at 70.5 h was found to be 12.5%.

On to `O=C(c1ccc(C2CCCN2)s1)N1CC=CC1` (centres undefined), for which the cytotoxicity at 70.5 h is -6.78%.

Regarding `Cc1nc(NCCSc2cnn[nH]2)c2c(C)noc2n1`, the cytotoxicity at 70.5 h was determined as 7.78%.

For `Cc1nnc(CN2CCCC(CCc3ccccc3C(F)(F)F)C2)o1` (centres undefined), the cytotoxicity at 70.5 h is -7.48%.

As to `Cc1cnccc1N1CCN(C(=O)CCCN2CCCCC2)CC1`, the cytotoxicity at 70.5 h was -3.26%.

Turning to `CC(C)N(C)C(=O)CN1C(=O)OC[C@@H]1c1ccccc1`, the cytotoxicity at 70.5 h is 0.286%.

With `COCC(=O)N1CCCC1c1ccc(C(=O)NCCN2CCCCC2)s1` (centres undefined), the cytotoxicity at 70.5 h is -10.2%.

For the molecule `CC(NC1CCCC1)c1ccccc1-n1cccn1` (centres undefined), the cytotoxicity at 70.5 h is -6.22%.

For the molecule `N#CC1(C(=O)N2C[C@H](Nc3ncccn3)[C@@H](C3CC3)C2)CCOCC1`, the cytotoxicity at 70.5 h was -15.6%.

Regarding `CSc1ccc(CNC(=O)C2CC(=O)N(C(C)(C)C)C2)cc1` (centres undefined), the cytotoxicity at 70.5 h is -3.39%.

As for `O=C(c1cn(CC(=O)N2CCc3[nH]cnc3C2)c2ccccc12)C1CC1`, the cytotoxicity at 70.5 h is -5.73%.

Take `O=C(C1CCC1)N1CCc2[nH]cnc2C12CCN(C1CCOCC1)CC2`: the cytotoxicity at 70.5 h is -0.358%.

On to `O=C(Cc1cc2c(cc1Cl)OCCO2)N1CC[C@H](CO)[C@H](O)C1`, for which the cytotoxicity at 70.5 h is -5.99%.

Take `CC(C)[C@H]1CN(Cc2ccccn2)C[C@@H]1NC(=O)CCS(C)(=O)=O`: the cytotoxicity at 70.5 h was -4.06%.

Regarding `Cc1csc(CN2CCC(C(=O)O)(n3ccc(-c4ccco4)n3)CC2)n1`, the cytotoxicity at 70.5 h is -7.21%.

Take `Cc1cccc(-n2ncc3c2CCCC3NCc2cnn(C)c2C)c1C` (centres undefined): the cytotoxicity at 70.5 h was 3.5%.

As for `Cn1c(=O)oc2ccc(NC(=O)N3CCOCC3)cc21`, the cytotoxicity at 70.5 h came out at 31.6%.

On to `COc1cccc(-c2c[nH]c(C)n2)c1F`, for which the cytotoxicity at 70.5 h is -11.2%.

Turning to `O=C(CCn1ccc(=O)[nH]c1=O)N1CCC(OCc2cccnc2)CC1`, the cytotoxicity at 70.5 h was found to be 27.2%.

In the case of `CN1CCCN(C(=O)c2cc(CN(C)CCc3ccccc3)on2)CC1`, the cytotoxicity at 70.5 h was -10.4%.

As to `CN(C)c1ncnc2c1CCN(S(=O)(=O)c1cccc(Cl)c1Cl)C2`, the cytotoxicity at 70.5 h was -4.66%.

For `O=C1CCC2(CCN(Cc3cscn3)CC2)CN1CCCO`, the cytotoxicity at 70.5 h is -8.82%.

`Cc1cnc(C)c(N2CCC(c3nnc(CN(C)C)n3C3CC3)CC2)n1`: the cytotoxicity at 70.5 h amounted to 11.2%.

As to `CCN(Cc1nccn1C)C(=O)c1ccc(NCCc2c[nH]cn2)nc1`, the cytotoxicity at 70.5 h is 4.71%.

As for `CCN(C)Cc1n[nH]c(=O)n1-c1cc(F)ccc1C`, the cytotoxicity at 70.5 h was -5.83%.

`O=C(Cn1nc2ccccc2n1)N1CCCC(O)(CN2CCCC2)C1` (centres undefined): the cytotoxicity at 70.5 h was determined as 13.9%.

On to `CCOc1ccc(C(=O)CCC(=O)NCCc2nncn2CC)cc1C`, for which the cytotoxicity at 70.5 h came out at 22.5%.

Consider `COCCOC(=O)N1CCn2nc(CN(C)Cc3nccs3)cc2C1`, for which the cytotoxicity at 70.5 h came to 13.8%.

Consider `Cc1cccc(C2CCCN(C(=O)CN3CCC(C(N)=O)CC3)C2)c1` (centres undefined), for which the cytotoxicity at 70.5 h was -4.32%.

Consider `COCCCN(C)C(=O)Cn1cccc(OC)c1=O`, for which the cytotoxicity at 70.5 h was -10.6%.

Consider `CC1(C)CN(CC(=O)NCc2ccccc2F)C[C@]1(C)O`, for which the cytotoxicity at 70.5 h was -9.16%.

With `O=C(c1ccco1)N1CCc2c(nc(-c3ccncc3)[nH]c2=O)C1`, the cytotoxicity at 70.5 h worked out at 13%.

As for `CN(C)CCC1CN(C(=O)c2cccc3c2OCC3)CCO1` (centres undefined), the cytotoxicity at 70.5 h was determined as 30%.

Take `CC(C)[C@]1(O)CN(C(=O)COCC(N)=O)C[C@H]1C`: the cytotoxicity at 70.5 h stood at 23.2%.

Turning to `O=c1c2cccc(F)c2ncn1CCN1CCNCC1`, the cytotoxicity at 70.5 h was -2.04%.

Turning to `Cc1c(Cl)c(C(=O)N2CC(c3cccnc3)C2)nn1C`, the cytotoxicity at 70.5 h is -1.27%.

Turning to `O=C(c1cncc(N2CCC3(CCCNC3)C2)n1)N1CCCC1` (centres undefined), the cytotoxicity at 70.5 h is -5.37%.

For `OCC1(CCOc2ccccc2)CCCN(c2ccc(Cl)cn2)C1` (centres undefined), the cytotoxicity at 70.5 h is -2.17%.

`CN(C)c1nc2n(c(=O)n1)CCN2C(=O)Nc1ccccc1`: the cytotoxicity at 70.5 h is -5.25%.

As to `O=C(Nc1ccccc1C(=O)NCCCN1CCOCC1)c1ccco1`, the cytotoxicity at 70.5 h is -6.18%.

Turning to `CN(C(=O)c1ccc2c(c1)nc(N1CC[C@H](O)C1)n2C)C1CCSCC1`, the cytotoxicity at 70.5 h was 24.9%.

Take `COc1ccc(Cl)cc1S(=O)(=O)N(C)CC(N)=O`: the cytotoxicity at 70.5 h was -5%.

As to `O=C(COc1cccnc1)N1CCOC(C(F)(F)F)C1` (centres undefined), the cytotoxicity at 70.5 h was -0.535%.

Take `CC(=O)N1CCOC(CNC(=O)c2cccc(CCC(C)(C)O)c2)C1` (centres undefined): the cytotoxicity at 70.5 h is 8.87%.

Regarding `COCc1ncc(CN2CC[C@@H](NC(=O)c3cccnc3)[C@H](O)C2)cn1`, the cytotoxicity at 70.5 h came to 20.2%.

For the molecule `CC(C)(C)NC(=O)c1ccccc1NC(=O)c1ccncc1`, the cytotoxicity at 70.5 h is -5.9%.

With `CCN(CC)CCn1ccnc1-c1[nH]cnc1C`, the cytotoxicity at 70.5 h was found to be 3.84%.

On to `COc1cccc(-c2noc3c2CN(c2nc(C)ncc2C)CC3)c1`, for which the cytotoxicity at 70.5 h is -9.61%.

Turning to `N[C@H]1CN(Cc2cnc(N3CCCC3)nc2)C[C@@H]1C1CC1`, the cytotoxicity at 70.5 h is -5.36%.

For the molecule `COC(=O)c1ccc(OC)c(CN2CCN(CC(C)C)C(=O)C2C)c1` (centres undefined), the cytotoxicity at 70.5 h stood at 26.8%.

On to `CCCc1cc(CNC2CCN(c3nc4ccccc4s3)CC2)on1`, for which the cytotoxicity at 70.5 h is -6.6%.

Turning to `O=c1c2ccccc2ncn1Cc1cc(C2CC2)[nH]n1`, the cytotoxicity at 70.5 h came to 13.8%.

Take `CN(C)C(=O)C1CCCN1C(=O)c1ccc(Cn2ccnc2)o1` (centres undefined): the cytotoxicity at 70.5 h turned out to be 10.3%.

Turning to `CCn1c(CC2CCNCC2)nn(Cc2ccc(C(=O)NC)o2)c1=O`, the cytotoxicity at 70.5 h was -11.7%.

Turning to `CC1CN(S(=O)(=O)c2ccc(C(=O)NCC(F)F)cc2)CCCO1` (centres undefined), the cytotoxicity at 70.5 h is -0.0719%.

Turning to `Cn1ncc(C2CC(=O)NCc3nc4sccn4c32)c1C1CC1` (centres undefined), the cytotoxicity at 70.5 h is -12.3%.

With `CCc1c(C)nc(C)nc1N1C[C@@H](CN(C)C)[C@@H](CO)C1`, the cytotoxicity at 70.5 h is -1.15%.

`CCCNS(=O)(=O)Cc1ccc(Br)cc1`: the cytotoxicity at 70.5 h was -7.66%.

With `Cc1ccc2cc(CN(C)Cc3ccccn3)c(=O)[nH]c2c1`, the cytotoxicity at 70.5 h was found to be 12.4%.

Take `CCc1ccccc1-c1cc(OC)nc(N)n1`: the cytotoxicity at 70.5 h is -8.45%.

For `CC(C)CC(O)C1CCN(C(=O)c2ccc(C(F)(F)F)nc2O)CC1` (centres undefined), the cytotoxicity at 70.5 h is -5.89%.

Consider `CCN(C)C(=O)c1cccc(S(=O)(=O)NCCc2nc(C)cc(=O)[nH]2)c1`, for which the cytotoxicity at 70.5 h is -22.4%.

Regarding `CC(C)[C@H]1CN(CCCO)C[C@@H]1NC(=O)CCC(F)(F)F`, the cytotoxicity at 70.5 h was -7.33%.

With `CC(Cn1ccnc1)NC1CCN(Cc2cccc(O)c2)CC1` (centres undefined), the cytotoxicity at 70.5 h was -4.85%.

Turning to `CCN(CC)C(CNCc1ccc(O)cc1)c1ccco1` (centres undefined), the cytotoxicity at 70.5 h was 27%.

Take `CCC(C(=O)N(C)CCC1=CCN(C)CC1)c1ccccc1` (centres undefined): the cytotoxicity at 70.5 h is 57.9%.

On to `CC(=O)N1CCN(Cc2ccc(C(F)(F)F)c(F)c2)CC(O)C1` (centres undefined), for which the cytotoxicity at 70.5 h is 0.294%.

Consider `COc1cc(CNCC(C)O)cc(Cl)c1OCc1ccc(C)cc1` (centres undefined), for which the cytotoxicity at 70.5 h stood at 39%.

For the origin of these results see ChEMBL document CHEMBL3507680, “University of Dundee, Gates Library screen for HepG2 cell viability”.
